According to patent US20250212873A1, “VOLATILE HDAC INHIBITORS FOR THERAPEUTIC AND PLANT APPLICATIONS” (The Regents of the University of California, priority 2022, published 2025):
“Also recorded” adds a separate entry of the source.

How the values were obtained:
[1] = system: SH-SY5Y Cancer cell line; assay: Cancer cell viability assay, SH-SY5Y; format: cell-based
Protocol: Cells were maintained in a 37° C. incubator with 5% CO2 throughout the experiment. Compound stocks were dissolved in 10% DMSO, but final concentrations were made fresh in complete media as needed. 10% DMSO solvent was used as control in complete media. Cells were seeded onto 12-well plates and allowed 12-24 hours until treatment began to allow cells to adhere to wells. This was followed by minimum 5-day treatment of compounds, changing the media with treatment every 48 hours. Cell lines A549, PC3, and SK-MEL-5 were seeded at 8000 cells/well which would provide 80-100% confluency after 6-day growth. SH-SY5Y was seeded at 8000 cells/well then 16,000 cells/well due to slower growth and given at least 10 days for sufficient growth. After allotted growth times, cell counts were performed via Countess™ automated cell counter. All assays were completed with a minimum of triplicate replicates for all conditions and analyzed through GraphPad Prism One-way ANOVA for significance.

[2] = system: Arabidopsis thaliana leaflets; assay: RNA-seq of leaflets of Arabidopsis exposed to diacetyl; format: in vivo
Protocol: A. thaliana plants (Col-0) that had been transplanted at day 7 to soil were placed in the experimental room for 2 days to acclimate (23°° C. with a 12-hour light/dark cycle). A single potted plant was placed in a 4-liter clear glass jar, with openings attached to a vacuum to allow for air exchange. A small beaker containing 1 ml of 1% diacetyl in PO or PO alone were placed inside the jar. Plants were watered at 2.5 days. After 5 days, individual leaflets were dissected, and flash frozen in liquid nitrogen. Trizol-based RNA isolation was carried out as above. Two biological replicates were performed for each condition, with an average of 68,355,820 reads/replicate, with an average of 95% mapped. Multiplexed libraries were made from total RNA input using the Illumina TruSeq RNA sample preparation kit (v2) and 50 bps single-end sequencing was done using the NextSeq500.
The HDACs are also important for gene expression in the shoots as well. Young plants in pots were exposed to vapors of diacetyl from a solution of the same concentration as before and performed an RNASeq analyses. 321 genes were differentially regulated in the leaflet of Arabidopsis thaliana following exposure to volatile diacetyl for 5 days (FDR<0.05). These DEGs are distributed across multiple chromosome locations and represent genes of diverse molecular functions (FIG. 27C). […]

[3] = system: A. thaliana plants (Col-0); assay: Cold tolerance assay; format: in vivo, Arabidopsis thaliana; settings: cold treatment to -10° C., scored after 5 days; controls ~30%
Protocol: HDACs have also been implicated in responses to a number of abiotic stresses, such as temperature, drought, salt, etc in a variety of ways (M. Luo, et al., Frontiers in Plant Science 8, (2017)). One of the phenotypes that can be rapidly tested in a laboratory is tolerance to cold temperatures in Arabidopsis. […] The yellowing of leaves was determined after 5 days and the controls ˜30% of the leaves turned yellow-brown in the classic cold response previously documented.
Twenty six day old A. thaliana plants (Col-0), that had been transplanted at day 7 to soil, were cold-acclimatized the plants for 7 days at 4° C., and then transferred to respective odor exposure chambers with a petridish containing 2 ml of chemical dissolved in PO or PO alone in a freezing chamber in which temperatures went down every 2° C. for 0.5 h and maintained for 1 hour, and it dropped up to −10° C. […] The survival rate was determined after 5 days. […] One-way analysis of Variance (ANOVA) between groups was performed for plant exposure quantitative data using Graph Pad Prism 9.

[4] = system: A. thaliana plants (Col-0); assay: Weed killing assay; format: in vivo, Arabidopsis thaliana; settings: 1% (volume/volume) in PO, 7 days vapor exposure, 4 weeks recovery
Description: Since large scale changes in gene expression occur it is presumed that higher doses of some of the compounds could negatively affect some plants, even causing death. Since Arabidopsis thaliana is also considered a type of weed and goes by the common name Thale cress, it was used as a model to test the weed killing potential at higher doses. In order to evaluate the activity of some of these volatiles in plant killing twenty-seven day old A. thaliana plants (Col-0), that had been transplanted at day 7 to soil, were placed in 10-gallon glass aquarium as chamber along with a petridish containing 2 ml of chemical dissolved in PO at 1% (volume/volume) or PO alone were placed at the other side of the container. Plants were exposed to odor vapors for 7 days and observed for death.
Twenty-seven day old A. thaliana plants (Col-0), that had been transplanted at day 7 to soil, were placed in 10-gallon glass aquarium as chamber along with a petridish containing 2 ml of chemical dissolved in PO at 1% (volume/volume) or PO alone were placed at the other side of the container. Plants were exposed to odor vapors for 7 days and observed for death.

CC(=O)C(C)=O [2,3-butanedione]
inhibition of neuroblastoma (SH-SY5Y) cell line, summary [1]: has potential in inhibiting | changes in proliferation, SH-SY5Y ([1]; 33 micro-molar): significant inhibition of cell growth; also recorded: Significant changes in proliferations | changes in proliferation, SH-SY5Y ([1]; 100 micro-molar): significant inhibition of cell growth; also recorded: Significant changes in proliferations | gene expression in leaflets (RNA-seq) ([2]; volatile exposure): significant changes in gene expression | genes differentially regulated in the leaflet ([2]; volatile exposure 5 days, 1% in PO, FDR<0.05): 321 genes | yellow leaves after freezing [3]: ~20% | plants killed (dead) [4]: 6 of 8
